This is an account of results in patent US8883771B2, “Bivalent inhibitors of IAP proteins and therapeutic methods using the same” (The Regents of the University of Michigan, priority 2012, dated 2014).

For test [1], the target named is cIAP-2 BIR3 (residues 238-349) (Homo sapiens (Human), UniProt Q13489). Nature of the test: Fluorescence polarization (FP) based competitive binding assay, cIAP-2 BIR3. The note with it: FP competitive assay, Smac-2F probe; read-out: Binding Affinities IC50 (nM) cIAP2 Protein. The method, then:
(§1) For cIAP-1 BIR3 and cIAP-2 BIR3 assays, a fluorescently labeled Smac mimetic (Smac-2F) was used as the fluorescent probe. The Kd values of Smac-2F to cIAP-1 BIR3 and cIAP-2 BIR3 were determined by monitoring the total fluorescence polarization of mixtures composed with the fluorescent probe at a fixed concentration and proteins with increasing concentrations up to full saturation. Fluorescence polarization values were measured using the Infinite M-1000 plate reader (Tecan U.S., Research Triangle Park, N.C.) in Microfluor 2 96-well, black, round-bottom plates (Thermo Scientific). To each well, 1 nM of SMAC-2F and increasing concentrations of protein were added to a final volume of 125 μl in the assay buffer (100 mM potassium phosphate, pH 7.5, 100 μg/ml bovine γ-globulin, 0.02% sodium azide, Invitrogen, with 4% DMSO). Plates were incubated at room temperature for 1-2 hours and mixed with gentle shaking to assure equilibrium. […] Equilibrium dissociation constants (Kd) were then calculated by fitting the sigmoidal dose-dependent FP increases as a function of protein concentrations using Graphpad Prism 5.0 software (Graphpad Software, San Diego, Calif.).
(§2) Mixtures of 5 μl of the tested compounds in DMSO and 120 μl of preincubated protein/tracer complex in the assay buffer (100 mM potassium phosphate, pH 7.5, 100 μg/ml bovine γ-globulin, 0.02% sodium azide, Invitrogen) were added into assay plates and incubated at room temperature for 2 hours with gentle shaking. Final concentrations of proteins and probes were 3 nM and 1 nM, 5 nM and 1 nM for assays for cIAP-1 BIR3 and cIAP-2 BIR3, respectively. […] FP values were measured as described above. IC50 values were determined by nonlinear regression fitting of the competition curves. The Ki values of competitive inhibitors were calculated using the derived equation described previously, based upon the measured IC50 values, the Kd values of the probe to different proteins, and the concentrations of the proteins and probes in the competitive assays.

The target of test [2] is cIAP1-BIR3 (residues 253-363) (Homo sapiens (Human), UniProt Q13490). Nature of the test: Fluorescence polarization (FP) based competitive binding assay, cIAP1-BIR3. The settings on record: Smac-2F probe, read-out: Binding Affinities IC50 (nM) cIAP1 Protein. As for the experimental part:
as §1, §2

For test [3], the target named is XIAP linker-BIR2-BIR3 (residues 120-356) (Homo sapiens (Human), UniProt P98170). Nature of the test: Fluorescence polarization (FP) based competitive binding assay, XIAP linker-BIR2-BIR3. The settings on record: FP competitive assay, Smac-1F probe; read-out: Binding Affinities IC50 (nM) XIAP Protein. As for the experimental part: as §1, §2
The FP-based assay for XIAP linker-BIR2-BIR3 protein was performed with the same procedures. In this assay, a bivalent fluorescently tagged peptidic Smac mimetic (Smac-1F) was used as the fluorescent probe whose Kd value to XIAP linker-BIR2-BIR3 was determined similarly through the saturation experiments. 0.01% of Triton X-100 was added in the assay buffer to achieve stable fluorescence and polarization value of the dimeric fluorescent probe. Final protein and probe concentrations utilized in the competitive assay were 3 nM and 1 nM, respectively.

Test [4] deals with SK-OV-3 ovarian cancer cell line. Nature of the test: Inhibition of cell growth in SK-OV-3 ovarian cancer cell line. The test is classed as cell-based, human.
Test [5] has as its system MDA-MB-231 breast cancer cell line. Nature of the test: Inhibition of cell growth in MDA-MB-231 breast cancer cell line. The test is classed as cell-based, human.
Setting [6] is: Homo sapiens, SK-OV-3, SK-OV-3 ovarian cancer cell line.
[7] abbreviates: Homo sapiens, MDA-MB-231, MDA-MB-231 breast cancer cell line.
[8] abbreviates: Homo sapiens, SK-OV-3 ovarian cancer cell line.
Setting [9] is: Homo sapiens, MDA-MB-231 breast cancer cell line.

With `CN[C@@H](C)C(=O)N[C@H]1CN(C(=O)NCCCCCCNC(=O)N2CC[C@H]3CC[C@@H](C(=O)N[C@H]4CCCC[C@@H]4c4ccccc4)N3C(=O)[C@@H](NC(=O)[C@H](C)NC)C2)CC[C@H]2CCC(C(=O)N[C@H]3CCCC[C@@H]3c3ccccc3)N2C1=O` (stereo in doubt) [Example 40], the IC50 was under 3000 nM in test [1]; under 3000 nM in test [2]; under 3000 nM in test [3]; under 10000 nM in test [4] (SK-OV-3 ovarian cancer cell line); under 10000 nM in test [5] (MDA-MB-231 breast cancer cell line).

For `CN[C@@H](C)C(=O)N[C@H]1CN(C(=O)NCCCCCCNC(=O)N2CC[C@H]3CC[C@@H](C(=O)N[C@H]4CCC[C@@H]4c4ccccc4)N3C(=O)[C@@H](NC(=O)[C@H](C)NC)C2)CC[C@H]2CCC(C(=O)N[C@H]3CCC[C@@H]3c3ccccc3)N2C1=O` (stereo in doubt) [Example 42], the IC50 is under 3000 nM in test [1]; under 1000 nM in test [2]; under 1000 nM in test [3]; under 1000 nM in test [4] (setting [6]); under 1000 nM in test [5] (setting [7]).

As to `CN[C@@H](C)C(=O)N[C@H]1CN(C(=O)NCCCCCCNC(=O)N2CC[C@H]3CC[C@@H](C(=O)N[C@@H]4CCC[C@H]4c4ccccc4)N3C(=O)[C@@H](NC(=O)[C@H](C)NC)C2)CC[C@H]2CCC(C(=O)N[C@@H]3CCC[C@H]3c3ccccc3)N2C1=O` (stereo in doubt) [Example 43], the IC50 in test [1] was under 3000 nM; in test [2], under 3000 nM; in test [3] it was under 3000 nM; in test [4] (setting [6]), under 1000 nM; in test [5] (setting [7]) it was under 1000 nM.

On to `CN[C@@H](C)C(=O)N[C@H]1CN(C(=O)NCCCCCCNC(=O)N2CC[C@H]3CC[C@@H](C(=O)N[C@@H]4CCC[C@@H]4c4ccccc4)N3C(=O)[C@@H](NC(=O)[C@H](C)NC)C2)CC[C@H]2CCC(C(=O)N[C@@H]3CCC[C@@H]3c3ccccc3)N2C1=O` (stereo in doubt) [Example 44], for which the IC50 in test [1] is under 3000 nM; in test [2] it was under 1000 nM; in test [3] it was under 1000 nM; in test [4] (setting [6]), under 1000 nM; in test [5] (setting [7]), under 1000 nM.

With `CN[C@@H](C)C(=O)N[C@H]1CN(C(=O)NCCCCCCCCNC(=O)N2CC[C@H]3CC[C@@H](C(=O)N[C@@H]4CCCc5ccccc54)N3C(=O)[C@@H](NC(=O)[C@H](C)NC)C2)CC[C@H]2CCC(C(=O)N[C@@H]3CCCc4ccccc43)N2C1=O` (some centres unmarked) [Example 4], the IC50 in test [1] is under 100 nM; in test [2] it was under 100 nM; in test [3] it was under 10 nM; in test [4] (setting [8]), under 100 nM; in test [5] (setting [9]), under 100 nM.

As to `CN[C@@H](C)C(=O)N[C@H]1CN(C(=O)Nc2ccc(NC(=O)N3CC[C@H]4CC[C@@H](C(=O)N[C@@H]5CCCc6ccccc65)N4C(=O)[C@@H](NC(=O)[C@H](C)NC)C3)cc2)CC[C@H]2CCC(C(=O)N[C@@H]3CCCc4ccccc43)N2C1=O` (some centres unmarked) [Example 5], the IC50 in test [1] is under 100 nM; in test [2] it was under 100 nM; in test [3], under 10 nM; in test [4] (setting [6]), under 100 nM; in test [5] (setting [7]) it was under 100 nM.

For `CN[C@@H](C)C(=O)N[C@H]1CN(C(=O)NCc2cccc(CNC(=O)N3CC[C@H]4CC[C@@H](C(=O)N[C@@H]5CCCc6ccccc65)N4C(=O)[C@@H](NC(=O)[C@H](C)NC)C3)c2)CC[C@H]2CCC(C(=O)N[C@@H]3CCCc4ccccc43)N2C1=O` (some centres unmarked) [Example 6], the IC50 is under 100 nM in test [1]; under 100 nM in test [2]; under 10 nM in test [3]; under 100 nM in test [4] (setting [8]); under 100 nM in test [5] (setting [9]).

As to `CN[C@@H](C)C(=O)N[C@H]1CN(S(=O)(=O)CC/C=C/CCS(=O)(=O)N2CC[C@H]3CC[C@@H](C(=O)NC(c4ccccc4)c4ccccc4)N3C(=O)[C@@H](NC(=O)[C@H](C)NC)C2)CC[C@H]2CCC(C(=O)NC(c3ccccc3)c3ccccc3)N2C1=O` (some centres unmarked) [Example 7], the IC50 is under 300 nM in test [1]; under 300 nM in test [2]; under 10 nM in test [3]; under 1000 nM in test [4] (setting [8]); under 1000 nM in test [5] (setting [9]).

As for `CN[C@@H](C)C(=O)N[C@H]1CN(S(=O)(=O)CCC/C=C/CCCS(=O)(=O)N2CC[C@H]3CC[C@@H](C(=O)NC(c4ccccc4)c4ccccc4)N3C(=O)[C@@H](NC(=O)[C@H](C)NC)C2)CC[C@H]2CCC(C(=O)NC(c3ccccc3)c3ccccc3)N2C1=O` (some centres unmarked) [Example 8], the IC50 in test [1] was under 100 nM; in test [2], under 100 nM; in test [3], under 10 nM; in test [4] (setting [8]), under 1000 nM; in test [5] (setting [9]) it was under 1000 nM.

As to `CN[C@@H](C)C(=O)N[C@H]1CN(S(=O)(=O)CCCCCCS(=O)(=O)N2CC[C@H]3CC[C@@H](C(=O)NC(c4ccccc4)c4ccccc4)N3C(=O)[C@@H](NC(=O)[C@H](C)NC)C2)CC[C@H]2CCC(C(=O)NC(c3ccccc3)c3ccccc3)N2C1=O` (some centres unmarked) [Example 9], the IC50 in test [1] was under 100 nM; in test [2] it was under 100 nM; in test [3], under 10 nM; in test [4] (setting [8]), under 1000 nM; in test [5] (setting [9]), under 1000 nM.

As to `CN[C@@H](C)C(=O)N[C@H]1CN(S(=O)(=O)CCCCCCCCS(=O)(=O)N2CC[C@H]3CC[C@@H](C(=O)NC(c4ccccc4)c4ccccc4)N3C(=O)[C@@H](NC(=O)[C@H](C)NC)C2)CC[C@H]2CCC(C(=O)NC(c3ccccc3)c3ccccc3)N2C1=O` (some centres unmarked) [Example 10], the IC50 in test [1] is under 100 nM; in test [2] it was under 100 nM; in test [3] it was under 10 nM; in test [4] (setting [8]), under 1000 nM; in test [5] (setting [9]), under 1000 nM.

As to `CN[C@@H](C)C(=O)N[C@H]1CN(C(=O)Nc2ccc(Cc3ccc(NC(=O)N4CC[C@H]5CC[C@@H](C(=O)N[C@@H]6CCCc7ccccc76)N5C(=O)[C@@H](NC(=O)[C@H](C)NC)C4)cc3)cc2)CC[C@H]2CCC(C(=O)N[C@@H]3CCCc4ccccc43)N2C1=O` (some centres unmarked) [Example 12], the IC50 in test [1] is under 100 nM; in test [2], under 100 nM; in test [3] it was under 10 nM; in test [4] (setting [6]) it was under 100 nM; in test [5] (setting [7]), under 100 nM.

`CN[C@@H](C)C(=O)N[C@H]1CN(C(=O)NCCCCCCNC(=O)N2CC[C@H]3CC[C@@H](C(=O)NC(c4ccccc4)c4ccccc4)N3C(=O)[C@@H](NC(=O)[C@H](C)NC)C2)CC[C@H]2CCC(C(=O)NC(c3ccccc3)c3ccccc3)N2C1=O` (some centres unmarked) [Example 13]: the IC50 in test [1] is under 300 nM; in test [2], under 300 nM; in test [3] it was under 30 nM; in test [4] (setting [6]) it was under 100 nM; in test [5] (setting [7]), under 100 nM.

With `CN[C@@H](C)C(=O)N[C@H]1CN(C(=O)Nc2ccc(NC(=O)N3CC[C@H]4CC[C@@H](C(=O)N[C@H]5C[C@@H]5c5ccc(F)cc5)N4C(=O)[C@@H](NC(=O)[C@H](C)NC)C3)cc2)CC[C@H]2CC[C@@H](C(=O)N[C@H]3C[C@@H]3c3ccc(F)cc3)N2C1=O` [Example 29], the IC50 is under 1000 nM in test [1]; under 1000 nM in test [2]; under 1000 nM in test [3]; under 5000 nM in test [4] (setting [6]); under 5000 nM in test [5] (setting [7]).

Consider `CN[C@@H](C)C(=O)N[C@H]1CN(C(=O)Nc2ccc(NC(=O)N3CC[C@H]4CC[C@@H](C(=O)N[C@@H]5CCC[C@H]5c5ccccc5)N4C(=O)[C@@H](NC(=O)[C@H](C)NC)C3)cc2)CC[C@H]2CC[C@@H](C(=O)N[C@@H]3CCC[C@H]3c3ccccc3)N2C1=O` [Example 32], for which the IC50 in test [1] was under 3000 nM; in test [2] it was under 3000 nM; in test [3], under 3000 nM; in test [4] (setting [6]), under 1000 nM; in test [5] (setting [7]) it was under 1000 nM.

For the compound `CN[C@@H](C)C(=O)N[C@H]1CN(C(=O)Nc2ccc(NC(=O)N3CC[C@H]4CC[C@@H](C(=O)N[C@H]5CCC[C@@H]5c5ccccc5)N4C(=O)[C@@H](NC(=O)[C@H](C)NC)C3)cc2)CC[C@H]2CC[C@@H](C(=O)N[C@H]3CCC[C@@H]3c3ccccc3)N2C1=O` [Example 33], the IC50 in test [1] was under 3000 nM; in test [2], under 3000 nM; in test [3] it was under 3000 nM; in test [4] (setting [6]) it was under 1000 nM; in test [5] (setting [7]), under 1000 nM.
